Experimental data published in US12486264B2, “Bicyclic HPK1 inhibitors” (Janssen Pharmaceutica NV, priority 2019, dated 2025).

What was measured:
Hpk1 = molecular target: T1, Hpk1 (Homo sapiens, UniProt Q92918); assay: SLP76 phosphorylation assay (HEK293 cells expressing Hpk1 and SLP76); assay type: cell-based; settings: SLP76 phosphorylation at S376, HEK293 cells expressing Hpk1 and SLP76, 4 hours incubation; for IC50: read-out: pSLP76 (HEK293) (pIC50) (converted)
T1 construct: expressed in transfected cells; host or cells: HEK293 cells engineered to express Hpk1 and SLP76
Description: Hpk1 inhibition in cells was determined by detection of SLP76 phosphorylation at S376 in lysates from HEK293 cells engineered to express Hpk1 and SLP76. Serial dilutions of test compounds were prepared in cell culture medium and 20 μl was transferred into each well of a 96-well plate containing HEK293 cells in 180 μl of culture medium. After incubation for 4 hours at 37° C./5% CO2, the culture medium was removed, plates were put on ice and cells washed with cold Minimal Essential Medium before lysing in 90 μl of cold Mammalian Protein Extraction Reagent (Thermo Scientific, 78501) for 30 minutes on ice. The cell lysates were transferred to another 96-well plate, centrifuged 10 minutes at 3000 rcf (4° C.) and 30 μl transferred to a 96-well High-bind plate (MSD, L15XB-3). After coating overnight at 4° C., the cell lysate was removed, wells were washed with base buffer (TBS, 0.2% Tween-20), and blocking solution (base buffer containing 3% MSD blocker A) was added to each well for 1 hour at room temperature. The blocking solution was removed, the wells were washed with base buffer, and detection antibody (SLP76 pS376) was added in 25 μl base buffer containing 1% MSD blocker A to each well. After a 2 h incubation at room temperature, the detection antibody was removed, wells were washed four times with base buffer, 25 μl SULFO-TAG labeled goat anti-rabbit secondary antibody (MSD, R32AB-1) in base buffer containing 1% MSD blocker A was added to each well and left for 1 hour at room temperature. Wells were washed 4 times with base buffer, 150 μl Read Buffer T was added to each well, and the plates were read in a Mesoscale plate reader (MSD). IC50 values were determined by curve-fitting the electrochemiluminescent signals obtained from the lysates of HEK293 cells expressing Hpk1 and SLP76 treated with test compounds at various concentrations minus the signal obtained from HEK293 cells expressing SLP76 only.

full-length human Hpk1 = molecular target: T2, full-length human Hpk1 (Homo sapiens, UniProt Q92918); assay: HPK1 kinase assay (ADP Glo); assay type: biochemical; settings: GST-Hpk1, 75 μM ATP solution added, ADP Glo luminescence; for IC50: read-out: Hpk1 biochemical (pIC50) (converted)
T2 construct: full-length human Hpk1 with an N-terminal Glutatione S-transferase (GST) tag; GST (N); made in house; host or cells: baculovirus/insect cell expression system
Description: A recombinant fusion protein consisting of full-length human Hpk1 with an N-terminal Glutatione S-transferase (GST) tag was produced in a baculovirus/insect cell expression system. GST-Hpk1 protein was purified from cell lysates by glutathione sepharose affinity chromatography. Kinase inhibition was determined using the ADP Glo™ Kinase Assay kit (Promega, V9101). Test compounds were prepared by serial dilution in dimethyl sulfoxide (DMSO) and 0.1 μl of each dilution was spotted onto a 384-well white Proxiplate (Perkin Elmer, 6008289). 8 μl of kinase assay buffer (40 mM Tris pH 7.5, 2 mM dithiothreitol (DTT), 0.05% Bovine Serum Albumin, 5 mM MgCl2) containing Hpk1 protein was transferred to each well and incubated for 30-45 minutes at room temperature. The enzymatic reaction was started by adding 2 μl of kinase assay buffer containing 75 μM ATP. After 120 minutes, the reaction was stopped by adding 3 μl of ADP Glo™ reagent (Promega, V9101) and incubating 45 minutes at room temperature.

T1 sequence (Q92918 whole entry): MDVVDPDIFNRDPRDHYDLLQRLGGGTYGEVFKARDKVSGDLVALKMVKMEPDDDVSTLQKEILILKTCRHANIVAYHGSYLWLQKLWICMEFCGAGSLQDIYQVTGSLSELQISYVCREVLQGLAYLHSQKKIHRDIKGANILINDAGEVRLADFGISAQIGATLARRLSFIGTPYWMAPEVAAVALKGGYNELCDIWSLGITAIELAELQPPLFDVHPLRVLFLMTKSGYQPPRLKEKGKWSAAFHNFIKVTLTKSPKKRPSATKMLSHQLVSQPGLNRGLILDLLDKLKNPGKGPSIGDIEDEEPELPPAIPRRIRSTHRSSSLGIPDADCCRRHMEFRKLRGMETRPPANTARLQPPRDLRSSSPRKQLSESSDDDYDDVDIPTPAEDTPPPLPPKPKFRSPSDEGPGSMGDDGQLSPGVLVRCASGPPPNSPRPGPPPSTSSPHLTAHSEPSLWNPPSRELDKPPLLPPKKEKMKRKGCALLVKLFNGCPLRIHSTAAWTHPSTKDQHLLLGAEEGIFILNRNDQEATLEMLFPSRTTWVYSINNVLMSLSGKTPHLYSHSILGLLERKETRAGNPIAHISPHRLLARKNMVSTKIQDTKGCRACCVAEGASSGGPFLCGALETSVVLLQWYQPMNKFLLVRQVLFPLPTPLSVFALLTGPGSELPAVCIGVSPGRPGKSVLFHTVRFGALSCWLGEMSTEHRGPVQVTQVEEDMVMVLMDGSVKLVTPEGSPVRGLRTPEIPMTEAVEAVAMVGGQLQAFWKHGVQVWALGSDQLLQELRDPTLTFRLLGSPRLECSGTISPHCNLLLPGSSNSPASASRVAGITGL
T2 sequence (Q92918 whole entry): as above

| IC50 (Hpk1) [nM] | IC50 (full-length human Hpk1) [nM] | pSLP76 (HEK293) (pIC50) (Hpk1) | Hpk1 biochemical (pIC50) (full-length human Hpk1) | SMILES |
| --- | --- | --- | --- | --- |
| 1550 | 12.3 | – | – | CN(C)Cc1cc(-c2cnc3[nH]cc(C(=O)NCCNC(=O)C(F)F)c3c2)ccc1C1CCOCC1 [Co. 29] |
| > 10000 | 324 | – | – | CC(C)C(CO)CNCc1c[nH]c2ncc(-c3ccc(C4CCOCC4)c(CN(C)C)c3)cc12 (stereo not shown) [Co. 34] |
| > 10000 | 9.12 | – | – | CN(C)Cc1cc(-c2cnc3[nH]cc(C(=O)NS(=O)(=O)C4CC4)c3c2)ccc1C1CCOCC1 [Co. 33] |
| 2140 | 15.8 | – | – | COCC(C)(O)CNC(=O)c1c[nH]c2ncc(-c3ccc(C4CCOCC4)c(CN(C)C)c3)cc12 (stereo not shown) [Co. 30] |
| 1580 | 66.1 | – | – | CC(=O)N(C)CCNC(=O)c1c[nH]c2ncc(-c3ccc(C4CCOCC4)c(CN(C)C)c3)cc12 [Co. 32] |
| 3020 | 22.9 | – | – | c1coc(CNCc2c[nH]c3ncc(-c4ccc(C5CCOCC5)c(C5CCCN5)c4)cc23)n1 (stereo not shown) [Co. 35] |
| 1320 | 26.3 | – | – | CC(C)[C@@H](CO)CNC(=O)c1c[nH]c2ncc(-c3ccc(C4CCOCC4)c(CN(C)C)c3)cc12 (single isomer, unassigned) [Co. 31b] |
| – | – | 5.94 | 7.93 | CC(CO)CNC(=O)c1c[nH]c2ncc(-c3ccc(C4CCOCC4)c(CN(C)C)c3)cc12 (stereo not shown) [Co. 27] |
| 257 | 3.39 | – | – | CC(C)[C@H](CO)CNC(=O)c1c[nH]c2ncc(-c3ccc(C4CCOCC4)c(CN(C)C)c3)cc12 (single isomer, unassigned) [Co. 31a] |
| 1660 | 21.9 | – | – | CN(C)Cc1cc(-c2cnc3[nH]cc(C(NCc4ncco4)C(F)(F)F)c3c2)ccc1C1CCOCC1 (stereo not shown) [Co. 37] |
| 2630 | 40.7 | – | – | CC(C)C(CO)CNC(c1c[nH]c2ncc(-c3ccc(C4CCOCC4)c(CN(C)C)c3)cc12)C(F)(F)F (stereo not shown) [Co. 36] |

The next lines start with the compound.

| SMILES | IC50 (Hpk1) [nM] | IC50 (full-length human Hpk1) [nM] | pSLP76 (HEK293) (pIC50) (Hpk1) | Hpk1 biochemical (pIC50) (full-length human Hpk1) |
| --- | --- | --- | --- | --- |
| Cc1nnc(CNC(=O)c2c[nH]c3ncc(-c4ccc(C5CCOCC5)c(CN(C)C)c4)cc23)o1 [Co. 21] | 9550 | 33.9 | – | – |
| CN(C)Cc1cc(-c2cnc3[nH]cc(C(=O)NCC4CCC(=O)N4C)c3c2)ccc1C1CCOCC1 (stereo not shown) [Co. 26] | 4270 | 38.9 | – | – |
| CN(C)Cc1cc(-c2cnc3[nH]cc(C(=O)N(C)C)c3c2)ccc1C1CCOCC1 [Co. 20b] | 7240 | 93.3 | – | – |
| CN(C)Cc1cc(-c2cnc3[nH]cc(C(=O)NCC4(CO)CCCC4)c3c2)ccc1C1CCOCC1 [Co. 17] | 251 | 3.8 | – | – |
| Cc1cc2cc(-c3ccc(C4CCOCC4)c(C4CCCN4)c3)cnc2[nH]1 (stereo not shown) [Co. 2] | 6760 | 145 | – | – |
| CC(C)C(O)CNC(=O)c1c[nH]c2ncc(-c3ccc(C4CCOCC4)c(CN(C)C)c3)cc12 (stereo not shown) [Co. 11] | 3550 | 21.9 | – | – |
| N#CCc1c[nH]c2ncc(-c3ccc(C4CCOCC4)c([C@@H]4CCCN4)c3)cc12 [Co. 4] | 120 | 11.2 | – | – |
| CN(C)Cc1cc(-c2cnc3[nH]cc(C(=O)NCc4ncco4)c3c2)ccc1C1CCOCC1 [Co. 19] | 1020 | 10.2 | – | – |
| N#Cc1c[nH]c2ncc(-c3ccc(C4CCOCC4)c(C4CCCN4)c3)cc12 (stereo not shown) [Co. 3] | 257 | 3.16 | – | – |
| CN(C)Cc1cc(-c2cnc3[nH]cc(C(=O)NCC(CO)C4CC4)c3c2)ccc1C1CCOCC1 (stereo not shown) [Co. 13] | 759 | 12 | – | – |
| CN(C)Cc1cc(-c2cnc3[nH]cc(C(=O)NCc4nccn4C)c3c2)ccc1C1CCOCC1 [Co. 20a] | 6920 | 28.2 | – | – |
| Cc1nc(CNC(=O)c2c[nH]c3ncc(-c4ccc(C5CCOCC5)c(CN(C)C)c4)cc23)no1 [Co. 22] | 6460 | 58.9 | – | – |
| CN(C)Cc1cc(-c2cnc3[nH]cc(C(=O)NCC(C)(C)O)c3c2)ccc1C1CCOCC1 [Co. 12] | 575 | 5.75 | – | – |
| c1cc2cc(-c3ccc(C4CCOCC4)c(C4CCCN4)c3)cnc2[nH]1 (stereo not shown) [Co. 6] | 389 | 30.2 | – | – |
| CN(C)Cc1cc(-c2cnc3[nH]cc(C(=O)NCC4(CO)CC4)c3c2)ccc1C1CCOCC1 [Co. 15] | 380 | 7.94 | – | – |
| CN(C)Cc1cc(-c2cnc3[nH]cc(C(=O)NCC4(CO)COC4)c3c2)ccc1C1CCOCC1 [Co. 16] | > 10000 | 53.7 | – | – |
| Cc1c[nH]c2ncc(-c3ccc(C4CCOCC4)c([C@@H]4COCCN4)c3)cc12 [Co. 8] | 112 | 4.47 | – | – |
| CN(C)Cc1cc(-c2cnc3[nH]cc(C(=O)NCc4nccs4)c3c2)ccc1C1CCOCC1 [Co. 24] | 1550 | 4.47 | – | – |
| CN(C)Cc1cc(-c2cnc3[nH]cc(C(=O)N[C@@H]4CCC[C@@H]4O)c3c2)ccc1C1CCOCC1 [Co. 18] | 263 | 2.88 | – | – |
| Cc1c[nH]c2ncc(-c3ccc(C4CCOCC4)c([C@@H]4CCCN4)c3)cc12 [Co. 1] | 288 | 1.86 | – | – |
| CN(C)Cc1cc(-c2cnc3[nH]cc(C(=O)NCC4(O)CCCC4)c3c2)ccc1C1CCOCC1 [Co. 23] | 1580 | 10.5 | – | – |
